Consider 22 molecules from patent EP4553080A1, “NUCLEOSIDE DERIVATIVES AS ANTIVIRAL AGENTS AGAINST CORONAVIRUSES” (Ustav Organicke Chemie a Biochemie AV CR, v.v.i., priority 2023, dated 2025).

The target in the assay is nsp14 methyltransferase from SARS-CoV-2 (Severe acute respiratory syndrome coronavirus 2, UniProt P0DTD1). In words: Nsp14 MTase activity inhibition in vitro (EchoMS assay). Format: biochemical.
Where [1] appears, read: recombinant nsp14 protein expressed in E. coli, dose-response curve.

Read-outs that look alike come from different tables or passages of the source.

Turning to `Cc1noc(-c2ccccc2)c1CSC[C@H]1O[C@@H](n2cc(C#Cc3cnc4ccccc4c3)c3c(N)ncnc32)[C@H](O)[C@@H]1O` [Compound 176b, (2R,3R,4S,5S)-2-(4-Amino-5-(quinolin-3-ylethynyl)-7H-pyrrolo[2,3-d]pyrimidin-7-yl)-5-((((3-methyl-5-phenylisoxazol-4-yl)methyl)thio)methyl)tetrahydrofuran-3,4-diol], the IC50 (usually the midpoint of a concentration-inhibition curve) under setting [1] was in the range of 100 to 500 nM.
`Cn1cnc(-c2ccccc2)c1CSC[C@H]1O[C@@H](n2cc(C#Cc3cncnc3)c3c(N)ncnc32)[C@H](O)[C@@H]1O` [Compound 237c, (2R,3R,4S,5S)-2-(4-Amino-5-(pyrimidin-5-ylethynyl)-7H-pyrrolo[2,3-d]pyrimidin-7-yl)-5-((((1-methyl-4-phenyl-1H-imidazol-5-yl)methyl)thio)methyl)tetrahydrofuran-3,4-diol]: the half-maximal inhibitory concentration (IC50) under setting [1] was 30 to 100 nM.
Still for that read-out and setting: the figure for `Cc1noc(-c2ccccc2)c1CSC[C@H]1O[C@@H](n2cc(C#Cc3cnc(N)nc3)c3c(N)ncnc32)[C@H](O)[C@@H]1O` [Compound 174b, (2R,3R,4S,5S)-2-(4-Amino-5-((2-aminopyrimidin-5-yl)ethynyl)-7H-pyrrolo[2,3-d]pyrimidin-7-yl)-5-((((3-methyl-5-phenylisoxazol-4-yl)methyl)thio)methyl)tetrahydrofuran-3,4-diol] is 30 to 100 nM.
Still for that read-out and setting: the figure for `Cc1noc(-c2ccccc2)c1CSC[C@H]1O[C@@H](n2nc(-c3ccc(CC#N)cc3)c3c(N)ncnc32)[C@H](O)[C@@H]1O` [Compound 222b, 2-(4-(4-Amino-1-((2R,3R,4S,5S)-3,4-dlhydroxy-5-((((3-methyl-5-phenylisoxazol-4-yl)methyl)thio)methyl)tetrahydrofuran-2-yl)-1H-pyrazolo[3,4-d]pyrimidin-3-yl)phenyl)acetonitrile] is 10 to 30 nM; for `Cc1noc(-c2ccccc2)c1CSC[C@H]1O[C@@H](n2nc(C#Cc3cncnc3)c3c(N)ncnc32)[C@H](O)[C@@H]1O` [Compound 218b] it is 30 to 100 nM.
As for `Cc1noc(-c2ccccc2)c1CSC[C@H]1O[C@@H](n2cc(-c3cncn3C)c3c(N)ncnc32)[C@H](O)[C@@H]1O` [Compound 155, (2R,3R,4S,5S)-2-(4-Amino-5-(1-methyl-1H-imidazol-5-yl)-7H-pyrrolo[2,3-d]pyrimidin-7-yl)-5-((((3-methyl-5-phenylisoxazol-4-yl)methyl)thio)methyl)tetrahydrofuran-3,4-diol], the IC50 under setting [1] fell in the range of 30 to 100 nM.
Consider `Cc1noc(-c2ccccc2)c1CSC[C@H]1O[C@@H](n2cc(C#Cc3cnc4ccccc4n3)c3c(N)ncnc32)[C@H](O)[C@@H]1O` [Compound 177b, (2R,3R,4S,5S)-2-(4-Amino-5-(quinoxalin-2-ylethynyl)-7H-pyrrolo[2,3-d]pyrimidin-7-yl)-5-((((3-methyl-5-phenylisoxazol-4-yl)methyl)thio)methyl)tetrahydrofuran-3,4-diol], for which the IC50 under setting [1] was 30 to 100 nM.
On the same count and under the same terms, the figure for `Cc1noc(-c2ccccc2)c1CSC[C@H]1O[C@@H](n2ccc3c(N)nc(F)nc32)[C@H](O)[C@@H]1O` [Compound 198, (2R,3R,4S,5S)-2-(4-Amino-2-fluoro-7H-pyrrolo[2,3-d]pyrimidin-7-yl)-5-((((3-methyl-5-phenylisoxazol-4-yl)methyl)thio)methyl)tetrahydrofuran-3,4-diol] is 30 to 100 nM; for `Cc1noc(-c2ccc3c(c2)OCO3)c1CSC[C@H]1O[C@@H](n2cc(-c3ccc(C#N)cc3)c3c(N)ncnc32)[C@H](O)[C@@H]1O` [Compound 236b] it is 10 to 30 nM.
As to `Cc1noc(-c2ccccc2)c1CSC[C@H]1O[C@@H](n2cc(SC34CC5CC(CC(C5)C3)C4)c3c(N)ncnc32)[C@H](O)[C@@H]1O` [Compound 191, (2R,3R,4S,5S)-2-(5-((Adamantan-1-yl)thio)-4-amino-7H-pyrrolo[2,3-d]pyrimidin-7-yl)-5-((((3-methyl-5-phenylisoxazol-4-yl)methyl)thio)methyl)tetrahydrofuran-3,4-diol], the IC50 under setting [1] was 100 to 500 nM.
For `Cc1noc(-c2ccccc2)c1CSC[C@H]1O[C@@H](n2cc(C#Cc3cccnc3)c3c(N)ncnc32)[C@H](O)[C@@H]1O` [Compound 170b, (2R,3R,4S,5S)-2-(4-Amino-5-(pyridin-3-ylethynyl)-7H-pyrrolo[2,3-d]pyrimidin-7-yl)-5-((((3-methyl-5-phenylisoxazol-4-yl)methyl)thio)methyl)tetrahydrofuran-3,4-diol], the IC50 under setting [1] was 10 to 30 nM.
Take `Cc1ncnc(-c2ccccc2)c1CSC[C@H]1O[C@@H](n2cc(C#Cc3cncnc3)c3c(N)ncnc32)[C@H](O)[C@@H]1O` [Compound 239c, (2R,3R,4S,5S)-2-(4-Amino-5-(pyrimidin-5-ylethynyl)-7H-pyrrolo[2,3-d]pyrimidin-7-yl)-5-((((4-methyl-6-phenylpyrimidin-5-yl)methyl)thio)methyl)tetrahydrofuran-3,4-diol]: under setting [1], the IC50 lay in the range of 30 to 100 nM.
Consider `Cc1noc(-c2ccccc2)c1CSC[C@H]1O[C@@H](n2cc(-c3ccc([N+](=O)[O-])cc3)c3c(N)ncnc32)[C@H](O)[C@@H]1O` [Compound 144b], for which the IC50 under setting [1] is 30 to 100 nM.
As to `Cc1nsc(-c2ccccc2)c1CSC[C@H]1O[C@@H](n2cc(-c3ccc(C#N)cc3)c3c(N)ncnc32)[C@H](O)[C@@H]1O` [Compound 231b, 4-(4-Amino-7-((2R,3R,4S,5S)-3,4-dihydroxy-5-((((3-methyl-5-phenylisothiazol-4-yl)methyl)thio)methyl)tetrahydrofuran-2-yl)-7H-pyrrolo[2,3-d]pyrimidin-5-yl)benzonitrile], the IC50 under setting [1] was 100 to 500 nM.
Consider `Cc1noc(-c2ccccc2)c1CSC[C@H]1O[C@@H](n2cc(C#Cc3ccnnc3)c3c(N)ncnc32)[C@H](O)[C@@H]1O` [Compound 173b], for which, under setting [1], the IC50 is 10 to 30 nM.
Consider `Cc1nccc(-c2ccccc2)c1CSC[C@H]1O[C@@H](n2ccc3c(N)ncnc32)[C@H](O)[C@@H]1O` [Compound 50c, (2R,3R,4S,5S)-2-(4-Amino-7H-pyrrolo[2,3-d]pyrimidin-7-yl)-5-((((2-methyl-4-phenylpyridin-3-yl)methyl)thio)methyl)tetrahydrofuran-3,4-diol], for which the IC50 under setting [1] was 100 to 500 nM.
Turning to `Cc1cc(C#N)cc(C)c1-c1cn([C@@H]2O[C@H](CSCc3c(C)noc3-c3ccccc3)[C@@H](O)[C@H]2O)c2ncnc(N)c12` [Compound 150, 4-(4-Amino-7-((2R,3R,4S,5S)-3,4-dihydroxy-5-((((3-methyl-5-phenylisoxazol-4-yl)methyl)thio)methyl)tetrahydrofuran-2-yl)-7H-pyrrolo[2,3-d]pyrimidin-5-yl)-3,5-dimethylbenzonitrile], the IC50 under setting [1] lay in the range of 10 to 30 nM.
With `Cn1nnc(-c2ccccc2)c1CSC[C@H]1O[C@@H](n2ccc3c(N)ncnc32)[C@H](O)[C@@H]1O` [Compound 55c, (2R,3R,4S,5S)-2-(4-Amino-7H-pyrrolo[2,3-d]pyrimidin-7-yl)-5-((((1-methyl-4-phenyl-1H-1,2,3-triazol-5-yl)methyl)thio)methyl)tetrahydrofuran-3,4-diol], under setting [1], the IC50 lay in the range of 30 to 100 nM.
As for `Cc1noc(-c2ccccc2)c1CSC[C@H]1O[C@@H](n2cc(-c3ccccc3)c3c(N)ncnc32)[C@H](O)[C@@H]1O` [Compound 149, (2R,3R,4S,5S)-2-(4-Amino-5-phenyl-7H-pyrrolo[2,3-d]pyrimidin-7-yl)-5-((((3-methyl-5-phenylisoxazol-4-yl)methyl)thio)methyl)tetrahydrofuran-3,4-diol], the IC50 under setting [1] is 30 to 100 nM.
`Cc1noc(-c2ccccc2)c1CSC[C@H]1O[C@@H](n2cc(-c3ccc(N)cc3)c3c(N)ncnc32)[C@H](O)[C@@H]1O` [Compound 157]: the IC50 under setting [1] lay within 30 to 100 nM.
The molecule `Cc1noc(Cc2ccccc2)c1CSC[C@H]1O[C@@H](n2ccc3c(N)ncnc32)[C@H](O)[C@@H]1O` [Compound 99c, (2R,3R,4S,5S)-2-(4-Amino-7H-pyrrolo[2,3-d]pyrimidin-7H-yl)-5-((((5-benzyl-3-methylisoxazol-4-yl)methyl)thio)methyl)tetrahydrofuran-3,4-diol] had an IC50 of 2000 to 5000 nM.
With `Cc1ncc(-c2cn([C@@H]3O[C@H](CSCc4c(C)noc4-c4ccccc4)[C@@H](O)[C@H]3O)c3ncnc(N)c23)s1` [Compound 156, (2R,3R,4S,5S)-2-(4-Amino-5-(2-methylthiazol-5-yl)-7H-pyrrolo[2,3-d]pyrimidin-7-yl)-5-((((3-methyl-5-phenylisoxazol-4-yl)methyl)thio)methyl)tetrahydrofuran-3,4-diol], the IC50 under setting [1] lay in the range of 10 to 30 nM.
